Holding throughout (assay): NCI tumour cell line growth inhibition, 48 h
Experiment [1] relates to ACHN renal.
Experiment [2] deals with EKVX NSCLC.
Experiment [3] relates to HCT-116 colon.
The subject of experiment [4] is HCT-15 colon.
In experiment [5] the test system is M14 melanoma.
Experiment [6] relates to OVCAR-3 ovarian.
Experiment [7] deals with PC-3 prostate.
The subject of experiment [8] is SK-MEL-28 melanoma.
Experiment [9] relates to SNB-75 CNS.
For experiment [10], the system named is UO-31 renal.

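Assay format: 96-well plates, 48-hour exposure. At the GI50, growth is halved. TGI: concentration producing complete growth inhibition.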 Where only a bound is given, the exact number is not on record here.

Take `O=C(O)Cc1[nH]cnc1C(=O)O`: the TGI in experiment [1], in [2], in [3], in experiment [4], in experiment [5] and in experiment [6] was over 100 µM in each case. The TGI in [7], in experiment [8], in experiment [9] and in experiment [10] was over 100 µM in each case.

With `N#CC1=C(N)Nc2nc3ccccc3n2C1c1ccccc1` (stereo not drawn), the TGI is 68.5 µM in experiment [1]; 57.4 µM in experiment [2]; over 100 µM in experiment [3]; over 100 µM in experiment [4]; over 100 µM in experiment [5]; 97.7 µM in experiment [6]. Further, the TGI in experiment [7] and in experiment [10] was over 100 µM in each case.

`CCOn1cc(C2=C(c3c[nH]c4ccccc34)C(=O)NC2=O)c2ccccc21`: the TGI in [1] is 16.4 µM; in experiment [2] it was 29.9 µM; in experiment [3] it was 4.03 µM; in experiment [4] it was 14.8 µM; in experiment [5], 17.9 µM; in experiment [6] it was under 0.0182 µM. In addition, the TGI was 17.3 µM in [7], 25.3 µM in experiment [8], 34.8 µM in [9] and over 47.4 µM in [10]. The GI50 was 14.6 µM in experiment [2]; under 0.0217 µM in experiment [3]; 0.0542 µM in experiment [5]; under 0.0117 µM in experiment [6]; under 0.0389 µM in experiment [7]; 2.05 µM in [8]. For the same compound, the GI50 in experiment [9] was under 0.0288 µM; in [10], 16.9 µM.

Regarding `CC1(C)N=C(N)N=C(N)N1c1cccc(OCc2cccc([N+](=O)[O-])c2)c1`, the TGI was over 100 µM in experiment [1]; over 100 µM in experiment [2]; over 100 µM in [3]; over 100 µM in [4]; over 100 µM in [5]; over 73.9 µM in experiment [6]. Besides, the TGI in [7] is over 82.7 µM; in experiment [8], over 100 µM; in [9] it was over 100 µM; in [10], over 100 µM.

As to `COC(=O)c1nc2c3c(cccc3c1C(=O)OC)Nc1ccccc1-2`, the TGI in [1] is over 100 µM; in experiment [2] it was over 100 µM; in [3], over 100 µM; in experiment [5], over 100 µM; in experiment [6], over 100 µM; in experiment [7] it was 82.1 µM. In addition, the TGI in experiment [8], in [9] and in [10] was over 100 µM in each case.

With `O=C1OC2(c3ccc(O)cc3Oc3cc(O)ccc32)c2c1c(-c1ccccc1)c(-c1ccccc1)c(-c1ccccc1)c2-c1ccccc1`, the TGI was 40.9 µM in [1]; 59.1 µM in experiment [2]; 57.3 µM in experiment [3]; 38.5 µM in experiment [4]; 34.4 µM in experiment [5]; over 100 µM in [6]. The TGI in experiment [7] is 32.7 µM; in experiment [8], 44.6 µM; in [9], 41 µM; in [10] it was 63.7 µM.

Turning to `CSc1sc(=S)sc1SC`, the TGI in [2] was over 100 µM; in [3] it was over 100 µM; in experiment [4], over 100 µM; in experiment [6], over 100 µM; in experiment [8], over 100 µM; in experiment [9], over 90 µM. The TGI in experiment [10] was over 100 µM.

`C/C(=C\COP(=O)(O)OP(=O)(O)O)CC/C=C(\C)CNc1ccc([N+](=O)[O-])cc1`: the TGI in [1], in experiment [2], in [3], in experiment [4], in [5] and in experiment [6] was over 100 µM each time. Also, the TGI in experiment [7], in [8], in [9] and in experiment [10] was over 100 µM each time.

Take `C#C[C@@]1(O)[C@@H](CO)O[C@@H](n2cc(F)c3c(N)ncnc32)[C@@H]1O`: the GI50 is 0.24 µM in experiment [1]; 0.675 µM in [2]; 0.297 µM in experiment [4]; 0.481 µM in experiment [5]; 1.11 µM in experiment [6]; 0.293 µM in experiment [7]. Further, the GI50 was 4.26 µM in experiment [8], 1.03 µM in [9] and 0.47 µM in experiment [10]. In addition, the TGI is over 100 µM in experiment [1]; 11.3 µM in experiment [2]; 3.19 µM in [4]; 2.39 µM in [5]; over 100 µM in experiment [6]; 3.24 µM in [7]. Moreover, the TGI in experiment [8] was over 100 µM; in experiment [9], 2.32 µM; in experiment [10] it was 2.48 µM.

`NC(=O)c1cc(C2OC(CO)C(O)C2O)nn1-c1ccc([N+](=O)[O-])cc1` (stereo not drawn): the TGI in [1], in [2], in experiment [3], in [4], in experiment [5] and in [6] was over 100 µM in each case. In addition, the TGI in [8], in experiment [9] and in [10] was over 100 µM each time.

In the case of `C[C@H](CCC1=NCCN1)[C@H]1CC[C@H]2[C@@H]3CC[C@@H]4C[C@H](O)CC[C@]4(C)[C@H]3CC[C@]12C`, the TGI was 24.2 µM in experiment [1]; 30.1 µM in [2]; over 36.9 µM in experiment [3]; over 50.2 µM in [4]; over 22.6 µM in [5]; 38.4 µM in experiment [6]. Besides, the TGI in experiment [7] was 28.4 µM; in [8], 4.86 µM; in [9], 22 µM; in experiment [10] it was 31.4 µM.

In the case of `O=C(O)C(Br)Cc1ccc2c(c1)OCO2` (stereo not drawn), the TGI in experiment [1], in [2], in experiment [3], in experiment [4], in experiment [5] and in experiment [6] was over 100 µM throughout. Further, the TGI in [8], in [9] and in [10] was over 100 µM each time.

For the compound `COc1ccc(/C(Cl)=C(\C=O)c2ccc(Cl)c(Cl)c2)cc1OC`, the TGI in experiment [1] was found to be 18.2 µM; in experiment [2] it was 30.6 µM; in experiment [3], 15.2 µM; in experiment [4], 20.7 µM; in experiment [5] it was 26.3 µM; in experiment [6] it was 26.3 µM. Also, the TGI in experiment [8] came to 28 µM; in experiment [9], 0.938 µM; in [10] it was 20.7 µM.

In the case of `CCCCCCCCCCCCCCCCOCCCOP(=O)(O)C1CCCN(O)C1=O` (stereo not drawn), the GI50 in experiment [1] was 3.2 µM; in [2], 3.6 µM; in experiment [4], 0.472 µM; in experiment [6], 2.77 µM; in experiment [7], 0.468 µM; in experiment [8], 3.46 µM. For the same compound, the GI50 in [9] is 2.13 µM; in experiment [10], 2.77 µM. The TGI in experiment [1] was 14.2 µM; in experiment [2], 16.3 µM; in experiment [4], 12.1 µM; in experiment [6], 16.4 µM; in experiment [7], 13.6 µM; in experiment [8], 44.3 µM. Further, the TGI is 15 µM in experiment [9] and 13.7 µM in experiment [10].

Consider `COc1ccc(/C=C/[N+](=O)[O-])cc1`, for which the TGI in experiment [1] was 32.4 µM; in experiment [2], 41 µM; in experiment [3], over 100 µM; in experiment [4], 15.2 µM; in [5], 6.48 µM; in experiment [6] it was 8.62 µM. Also, the TGI in [8] was 28.3 µM; in experiment [9] it was over 100 µM; in experiment [10], 41.3 µM.

On to `O=C1c2ccccc2C(=O)c2c(O)c(O)cc(O)c21`, for which the TGI is over 100 µM in experiment [1]; over 100 µM in experiment [2]; 77.1 µM in experiment [3]; over 100 µM in experiment [4]; over 100 µM in experiment [5]; 64.3 µM in [6]. In addition, the TGI in experiment [8] is over 100 µM; in experiment [9], over 100 µM; in experiment [10] it was 49.2 µM.

Consider `COc1cc2c3c(c4cc(OC)c(OC)cc4c2cc1OC)[C@H](O)[C@@H]1CCCN1C3`, for which the TGI in experiment [1] is 0.3 µM; in experiment [2], 0.938 µM; in [3] it was 7.64 µM; in experiment [4], 5.45 µM; in [5], 2.06 µM; in [6] it was 1.18 µM. In addition, the TGI in experiment [7] was 1.98 µM; in experiment [8] it was over 100 µM; in experiment [9] it was 0.252 µM.

Consider `Nc1nncs1`, for which the TGI is over 5000 µM in experiment [1]; over 5000 µM in [2]; over 5000 µM in experiment [3]; 4920 µM in experiment [4]; over 5000 µM in experiment [5]; over 5000 µM in [6]. Further, the TGI is over 5000 µM in experiment [7], over 5000 µM in [8], over 3710 µM in experiment [9] and over 5000 µM in [10].

`COc1ccc2c(c1)/C(=C\c1cccc(/C=C3/C(=O)Nc4ccc(OC)cc43)n1)C(=O)N2`: the TGI in experiment [1] was 5.41 µM; in [2], over 40.3 µM; in [3], 1.29 µM; in experiment [4], over 25.1 µM; in experiment [5], 3.22 µM; in [6] it was 5.38 µM. Also, the TGI is 8.91 µM in experiment [7], over 100 µM in experiment [9] and 3.81 µM in experiment [10].

As for `O=C(O)CNCc1c2ccccc2[n+]([O-])c2ccccc12`, the TGI in [1], in experiment [2], in experiment [3], in [4], in experiment [5] and in [6] was over 100 µM each time. For the same compound, the TGI in experiment [8] is over 100 µM; in experiment [9] it was over 100 µM; in experiment [10], 91.7 µM.

These data come from PubChem BioAssay (NCI).
